From patent US10407422B2, “Triazolopyridine inhibitors of myeloperoxidase” (priority 2015, dated 2019) come the findings set out here.

Experiment [1] concerns the target T1, myeloperoxidase (MPO) (Homo sapiens (Human), UniProt P05164). In words: MPO peroxidation assay (Amplex Red assay). Format: biochemical. Particulars: potency range class. As to the method: MPO Peroxidation Assay (Amplex Red Assay) MPO peroxidation activity was measured in 100 mM KPi (pH 7.4) by utilizing the non-fluorescent reagent Amplex Red (Invitrogen Cat. #A12222) which can be oxidized to the highly fluorescent resorufin. Amplex Red is oxidized by the peroxidase action of MPO to resorufin. Reactions were carried out in 50 μL total volume by adding a 25 μL mixture of 200 pM myeloperoxidase and 40 nM H2O2(Sigma #349887) to 100 nL inhibitor in 100% DMSO in a 384 well Perkin Elmer Optiplate. Enzyme and compound were preincubated for ten minutes at room temperature. After the ten minute preincubation, 25 μL of an Amplex Red mixture containing 200 μM Amplex Red and 10 mM H2O2 was added to the plate. Kinetic determinations were carried out immediately on a Perkin Elmer Envision (15 minute kinetic read, Ex: 535 nm, Em: 590 nm). IC50 values were calculated by determining the slope of the linear portion of the kinetic trace (180-540 secs), and using that calculated slope to determine % inhibition occurring at each concentration of inhibitor using the following equation: [formula] where A=minimal Y value (activity level of inhibited sample), B=maximal Y value (activity level of uninhibited sample), C=Log IC50, D=Hill Slope, x=concentration of inhibitor. MPO Chlorination Assay (APF Assay)

Experiment [2] concerns the target T1, myeloperoxidase (MPO). In words: MPO chlorination assay (APF assay). It counts as biochemical. Conditions: potency range class. As to the method:
[formula] where A=minimal Y value (activity level of inhibited sample), B=maximal Y value (activity level of uninhibited sample), C=Log IC50, D=Hill Slope, x=concentration of inhibitor. MPO Chlorination Assay (APF Assay) MPO chlorination activity was measured in 100 mM KPi (pH 7.4) by utilizing the non-fluorescent reagent Aminophenyl fluorescein (APF, Invitrogen Cat. #A36003). APF is cleaved by (—OCl) to yield the fluorescent compound fluorescein. Reactions were carried out in 50 μL total volume by adding a 25 μL mixture of 200 pM myeloperoxidase and 120 mM NaCl to 100 nL inhibitor in 100% DMSO in a 384 well, non-binding surface clear bottom plate (Corning #3655). Enzyme, inhibitor, and chloride were preincubated for ten minutes at room temperature. After the ten minute preincubation, 25 μL of an APF mixture containing […], 120 mM NaCl and 10 μM H2O2 was added to the plate using the internal dispensing system of a Hammatsu FDSS 6000. Kinetic determinations were carried out immediately on the FDSS 6000 (3 minute kinetic read, 1 read every second, ex: 485 nm, em: 535 nm). IC50 values for inhibitors were calculated by taking the slope of the linear portion of the kinetic measurement (20 seconds to ˜80-120 secs). IC50 values were calculated by determining the slope of the linear portion of the kinetic trace […], and using that calculated slope to determine % inhibition occurring at each concentration of inhibitor using the following equation: [formula] where A=minimal Y value (activity level of inhibited sample), B=maximal Y value (activity level of uninhibited sample), C=Log IC50, D=Hill Slope, x=concentration of inhibitor. EPX Bromination Assay

T1 sequence (P05164 49-745): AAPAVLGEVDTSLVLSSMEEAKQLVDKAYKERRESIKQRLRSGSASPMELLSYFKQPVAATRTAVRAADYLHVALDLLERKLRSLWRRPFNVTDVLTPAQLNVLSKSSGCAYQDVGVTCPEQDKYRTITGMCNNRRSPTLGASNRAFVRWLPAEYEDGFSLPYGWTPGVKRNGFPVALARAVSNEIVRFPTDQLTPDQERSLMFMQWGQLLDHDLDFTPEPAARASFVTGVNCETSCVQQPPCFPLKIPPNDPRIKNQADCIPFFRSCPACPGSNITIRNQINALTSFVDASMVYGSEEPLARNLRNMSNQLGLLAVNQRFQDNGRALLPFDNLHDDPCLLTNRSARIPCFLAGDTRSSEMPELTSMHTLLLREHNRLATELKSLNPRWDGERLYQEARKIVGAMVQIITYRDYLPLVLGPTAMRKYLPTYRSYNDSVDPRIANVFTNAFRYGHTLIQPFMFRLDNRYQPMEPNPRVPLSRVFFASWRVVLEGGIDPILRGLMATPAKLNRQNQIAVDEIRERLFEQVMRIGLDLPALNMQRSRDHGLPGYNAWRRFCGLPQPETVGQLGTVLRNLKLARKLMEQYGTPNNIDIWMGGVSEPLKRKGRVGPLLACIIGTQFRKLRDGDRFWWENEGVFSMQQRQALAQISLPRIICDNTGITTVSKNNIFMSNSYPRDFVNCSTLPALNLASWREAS

Broadly, the IC50 is the concentration at which inhibition is half-maximal. With `Nc1cc(Cc2cnn(CCCC3CCNCC3)c2)c2nn[nH]c2n1` [Example 273, 7-({1-[3-(Piperidin-4-yl)propyl]-1H-pyrazol-4-yl}methyl)-3H-[1,2,3]triazolo[4,5-b]pyridin-5-amine], the IC50 in experiment [1] is 1 to 100 nM; in experiment [2], 101 to 999 nM.

In the case of `Nc1cc(Cc2cnn(CC3CC(Cc4ccc(F)cc4)CN3)c2)c2nn[nH]c2n1` (stereo not shown) [Example 281, 7-{[1-({4-[(4-Fluorophenyl)methyl]pyrrolidin-2-yl}methyl)-1H-pyrazol-4-yl]methyl}-3H-[1,2,3]triazolo[4,5-b]pyridin-5-amine], the half-inhibitory concentration (IC50) in experiment [1] and in experiment [2] was 1 to 100 nM in each case.

As to `Nc1cc(Cc2cnn(-c3cccc(C(F)(F)F)c3)c2)c2nn[nH]c2n1` [Example 14, 7-((1-(3-(Trifluoromethyl)phenyl)-1H-pyrazol-4-yl)methyl)-3H-[1,2,3]triazolo[4,5-b]pyridin-5-amine], the concentration for half-maximal inhibition (IC50) in experiment [1] is 1 to 100 nM; in experiment [2], 101 to 999 nM.

Turning to `C[C@@H]1CN(c2cccc(Cn3cc(Cc4cc(N)nc5[nH]nnc45)cn3)c2)C[C@H](C)O1` [Example 228, 7-{[1-({3-[cis-2,6-Dimethylmorpholin-4-yl]phenyl}methyl)-1H-pyrazol-4-yl]methyl}-3H-[1,2,3]triazolo[4,5-b]pyridin-5-amine], the IC50 in experiment [1] and in experiment [2] was 101 to 999 nM each time.

With `Nc1cc(Cc2cnn(Cc3cccc(Oc4cccc(C5CCNCC5)c4)c3)c2)c2nn[nH]c2n1` [Example 236, 7-{[1-({3-[3-(Piperidin-4-yl)phenoxy]phenyl}methyl)-1H-pyrazol-4-yl]methyl}-3H-[1,2,3]triazolo[4,5-b]pyridin-5-amine], the IC50 in experiment [1] and in experiment [2] was 1 to 100 nM throughout.

On to `Nc1cc(Cc2cnn(Cc3ccc(CN4CCOCC4)cc3)c2)c2nn[nH]c2n1` [Example 108, 7-((1-(4-(Morpholinomethyl)benzyl)-1H-pyrazol-4-yl)methyl)-3H-[1,2,3]triazolo[4,5-b]pyridin-5-amine], for which the IC50 lay in the range of 1 to 100 nM in experiment [1] and 101 to 999 nM in experiment [2].

On to `Nc1cc(Cc2cnn(CC3CCc4ccccc4C3)c2)c2nn[nH]c2n1` (stereo not shown) [Example 136, 7-{[1-(1,2,3,4-Tetrahydronaphthalen-2-ylmethyl)-1H-pyrazol-4-yl]methyl}-3H-[1,2,3]triazolo[4,5-b]pyridin-5-amine], for which the IC50 in experiment [1] and in experiment [2] was 1 to 100 nM each time.

On to `Nc1cc(Cc2cnn(Cc3ccc4ncccc4c3)c2)c2nn[nH]c2n1` [Example 128, 7-((1-(Quinolin-6-ylmethyl)-1H-pyrazol-4-yl)methyl)-3H-[1,2,3]triazolo[4,5-b]pyridin-5-amine], for which the IC50 was 1 to 100 nM in experiment [1] and 101 to 999 nM in experiment [2].

With `Nc1cc(Cc2cnn(C(CCCO)c3ccccc3)c2)c2nn[nH]c2n1` (stereo not shown) [Example 146, 4-[4-({5-Amino-3H-[1,2,3]triazolo[4,5-b]pyridin-7-yl}methyl)-1H-pyrazol-1-yl]-4-phenylbutan-1-ol], the IC50 in experiment [1] and in experiment [2] was 101 to 999 nM each time.

Consider `Nc1cc(Cc2cnn(Cc3ccc(C(=O)NCc4ncc[nH]4)cc3)c2)c2nn[nH]c2n1` [Example 74, N-((1H-Imidazol-2-yl)methyl)-4-((4-((5-amino-3H-[1,2,3]triazolo[4,5-b]pyridin-7-yl)methyl)-H-pyrazol-1-yl)methyl)benzamide], for which the figures for the IC50 in experiment [1] and in experiment [2] were 1 to 100 nM and 101 to 999 nM, respectively.

On to `Nc1cc(Cc2cnn(Cc3ccc(CO)cc3)c2)c2nn[nH]c2n1` [Example 64, (4-((4-((5-Amino-3H-[1,2,3]triazolo[4,5-b]pyridin-7-yl)methyl)-1H-pyrazol-1-yl)methyl)phenyl)methanol], for which the IC50 in experiment [1] is 1 to 100 nM; in experiment [2], 101 to 999 nM.

Consider `CC(C)(C)OC(=O)N1CCc2cc(Cn3cc(Cc4cc(N)nc5[nH]nnc45)cn3)ccc2C1` [Example 129, tert-Butyl 6-((4-((5-amino-3H-[1,2,3]triazolo[4,5-b]pyridin-7-yl)methyl)-1H-pyrazol-1-yl)methyl)-3,4-dihydroisoquinoline-2(1H)-carboxylate], for which the IC50 in experiment [1] was in the range of 101 to 999 nM; in experiment [2], 1000 to 10000 nM.

On to `CN(C)CCNC(=O)c1ccc(Cn2cc(Cc3cc(N)nc4[nH]nnc34)cn2)cc1` [Example 72, 4-((4-((5-Amino-3H-[1,2,3]triazolo[4,5-b]pyridin-7-yl)methyl)-1H-pyrazol-1-yl)methyl)-N-(2-(dimethylamino)ethyl)benzamide], for which the results for the half-maximal inhibitory concentration (IC50) in experiment [1] and in experiment [2] were 1 to 100 nM and 101 to 999 nM, respectively.

For the molecule `Nc1cc(Cc2cn(Cc3cccc(C4CCNCC4)c3)nc2C(F)F)c2nn[nH]c2n1` [Example 286, 7-{[3-(Difluoromethyl)-1-{[3-(piperidin-4-yl)phenyl]methyl}-1H-pyrazol-4-yl]methyl}-3H-[1,2,3]triazolo[4,5-b]pyridin-5-amine], the IC50 in experiment [1] and in experiment [2] was 101 to 999 nM throughout.

As for `Cc1[nH]c(-c2ccccc2)nc1-c1cccc(Cn2cc(Cc3cc(N)nc4[nH]nnc34)cn2)c1` [Example 279, 7-[(1-{[3-(5-Methyl-2-phenyl-1H-imidazol-4-yl)phenyl]methyl}-1H-pyrazol-4-yl)methyl]-3H-[1,2,3]triazolo[4,5-b]pyridin-5-amine], the IC50 is 1 to 100 nM in experiment [1] and 101 to 999 nM in experiment [2].

Take `Nc1cc(Cc2cnn(Cc3cccc(Oc4cccc(C5CCCN5)c4)c3)c2)c2nn[nH]c2n1` (stereo not shown) [Example 238, 7-{[1-({3-[3-(Pyrrolidin-2-yl)phenoxy]phenyl}methyl)-1H-pyrazol-4-yl]methyl}-3H-[1,2,3]triazolo[4,5-b]pyridin-5-amine]: the IC50 in experiment [1] and in experiment [2] was 1 to 100 nM throughout.

Turning to `Nc1cc(Cc2cnn(Cc3ccc(C(=O)NCc4ccncc4)cc3)c2)c2nn[nH]c2n1` [Example 86, 4-{[4-({5-Amino-3H-[1,2,3]triazolo[4,5-b]pyridin-7-yl}methyl)-1H-pyrazol-1-yl]methyl}-N-(pyridin-4-ylmethyl)benzamide], the values for the concentration for half-maximal inhibition (IC50) in experiment [1] and in experiment [2] were 1 to 100 nM and 101 to 999 nM, respectively.

In the case of `Nc1cc(Cc2cnn(Cc3cccc(OCC4CCc5ccccc54)c3)c2)c2nn[nH]c2n1` (stereo not shown) [Example 235, 7-[(1-{[3-(2,3-Dihydro-1H-inden-1-ylmethoxy)phenyl]methyl}-1H-pyrazol-4-yl)methyl]-3H-[1,2,3]triazolo[4,5-b]pyridin-5-amine], the IC50 in experiment [1] and in experiment [2] was 101 to 999 nM in each case.

With `Cc1ccc([C@@H]2CCNC2)cc1Cn1cc(Cc2cc(N)nc3[nH]nnc23)cn1` [Example 194, 7-{[1-({2-Methyl-5-[(3S)-pyrrolidin-3-yl]phenyl}methyl)-1H-pyrazol-4-yl]methyl}-3H-[1,2,3]triazolo[4,5-b]pyridin-5-amine], the figures for the half-inhibitory concentration (IC50) in experiment [1] and in experiment [2] were 1 to 100 nM and 1000 to 10000 nM, respectively.

As to `CC1CNCCC1c1cccc(Cn2cc(Cc3cc(N)nc4[nH]nnc34)cn2)c1` (stereo not shown) [Example 212, 7-[(1-{[3-(3-Methylpiperidin-4-yl)phenyl]methyl}-1H-pyrazol-4-yl)methyl]-3H-[1,2,3]triazolo[4,5-b]pyridin-5-amine], the concentration for half-maximal inhibition (IC50) in experiment [1] and in experiment [2] was 1 to 100 nM in each case.

In the case of `Cc1nc(-c2cccc(Cn3cc(Cc4cc(N)nc5[nH]nnc45)cn3)c2)no1` [Example 59, 7-((1-(3-(5-Methyl-1,2,4-oxadiazol-3-yl)benzyl)-1H-pyrazol-4-yl)methyl)-3H-[1,2,3]triazolo[4,5-b]pyridin-5-amine], the results for the half-maximal inhibitory concentration (IC50) in experiment [1] and in experiment [2] were 1 to 100 nM and 101 to 999 nM, respectively.

As for `Nc1cc(Cc2cnn(C(CO)c3ccccc3)c2)c2nn[nH]c2n1` (stereo not shown) [Example 145, 2-(4-((5-Amino-3H-[1,2,3]triazolo[4,5-b]pyridin-7-yl)methyl)-1H-pyrazol-1-yl)-2-phenylethanol], the half-inhibitory concentration (IC50) in experiment [1] and in experiment [2] was 101 to 999 nM each time.

For `Nc1cc(Cc2cnn(-c3cccc4ccccc34)c2)c2nn[nH]c2n1` [Example 9, 7-((1-(Naphthalen-1-yl)-1H-pyrazol-4-yl)methyl)-3H-[1,2,3]triazolo[4,5-b]pyridin-5-amine], the IC50 in experiment [1] and in experiment [2] was 1 to 100 nM in each case.
